Results reported in publication PMC10467532, “Design, synthesis, and biological evaluation of thiazole/thiadiazole carboxamide scaffold-based derivatives as potential c-Met kinase inhibitors for cancer treatment” (Journal of Enzyme Inhibition and Medicinal Chemistry, 2023).

How the values were obtained:
c-Met = target: T1, c-Met (Homo sapiens, UniProt P08581); experiment: In vitro c-Met enzymatic assay (HTRF); format: biochemical; conditions: for IC50: HTRF assay, mean ± SD, triplicate, read-out: IC50 against c-Met; for fold loss of c-Met inhibitory activity compared to 51w: ratio of c-Met IC50 to that of 51w
T1 construct: purchased Invitrogen (Waltham, MA)
T1 sequence (P08581 25-1390): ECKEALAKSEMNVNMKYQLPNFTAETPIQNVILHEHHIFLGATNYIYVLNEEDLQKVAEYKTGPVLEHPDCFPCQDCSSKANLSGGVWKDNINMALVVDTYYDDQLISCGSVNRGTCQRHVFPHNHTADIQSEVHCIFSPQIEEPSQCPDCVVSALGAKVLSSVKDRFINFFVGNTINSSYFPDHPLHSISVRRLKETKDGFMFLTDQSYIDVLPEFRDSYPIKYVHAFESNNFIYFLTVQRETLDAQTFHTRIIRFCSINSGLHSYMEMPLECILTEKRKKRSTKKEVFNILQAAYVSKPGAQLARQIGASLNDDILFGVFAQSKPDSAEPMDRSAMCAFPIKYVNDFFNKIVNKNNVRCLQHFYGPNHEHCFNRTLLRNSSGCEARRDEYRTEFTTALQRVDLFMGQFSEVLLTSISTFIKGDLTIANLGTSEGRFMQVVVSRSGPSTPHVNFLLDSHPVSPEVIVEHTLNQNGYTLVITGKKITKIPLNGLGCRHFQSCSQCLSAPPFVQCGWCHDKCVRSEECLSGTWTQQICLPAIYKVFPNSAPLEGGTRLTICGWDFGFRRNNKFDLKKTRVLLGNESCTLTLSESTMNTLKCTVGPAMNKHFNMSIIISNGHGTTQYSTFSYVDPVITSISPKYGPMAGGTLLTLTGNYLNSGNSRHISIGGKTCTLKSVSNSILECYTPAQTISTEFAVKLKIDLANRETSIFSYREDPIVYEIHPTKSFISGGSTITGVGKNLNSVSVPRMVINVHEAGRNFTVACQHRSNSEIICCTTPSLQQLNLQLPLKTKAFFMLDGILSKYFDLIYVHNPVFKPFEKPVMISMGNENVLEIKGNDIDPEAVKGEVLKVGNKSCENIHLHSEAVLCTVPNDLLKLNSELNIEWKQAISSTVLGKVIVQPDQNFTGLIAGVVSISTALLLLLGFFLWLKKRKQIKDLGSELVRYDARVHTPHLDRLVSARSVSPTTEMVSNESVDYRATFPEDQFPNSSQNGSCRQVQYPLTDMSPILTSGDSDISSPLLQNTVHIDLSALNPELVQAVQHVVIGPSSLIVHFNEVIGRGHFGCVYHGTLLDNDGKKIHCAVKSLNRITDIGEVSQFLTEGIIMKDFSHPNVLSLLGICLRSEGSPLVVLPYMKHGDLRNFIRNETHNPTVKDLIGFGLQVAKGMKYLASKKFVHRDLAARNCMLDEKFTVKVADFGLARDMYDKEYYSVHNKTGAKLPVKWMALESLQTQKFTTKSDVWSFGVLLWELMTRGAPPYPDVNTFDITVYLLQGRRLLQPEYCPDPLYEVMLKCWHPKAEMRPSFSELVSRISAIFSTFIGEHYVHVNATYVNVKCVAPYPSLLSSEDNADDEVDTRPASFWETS
Method: Inhibition of target compounds on c-Met kinase activity was measured by using the homogeneous time-resolved fluorescence (HTRF) assay.
The tyrosine kinases inhibitory activities of target compounds were evaluated in 384-well microtiter plates using purified kinases purchased from Invitrogen (Waltham, MA) by homogeneous time-resolved fluorescence (HTRF) assay. The HTRF KinEASE TK kit was performed according to the instructions. After the kinases and test compounds were incubated at 25–30 °C for 5 min, the kinase reactions were initiated by addition of 39 μL of kinase reaction buffer solution and incubated at 25–30 °C for 30 min. The reactions were quenched by addition 10 µL mixed detection solution. […] The inhibition rate (%) was calculated using the following equation: inhibition rate = [(activity of enzyme with tested compound – min)/(max – min)] × 100 (max: the enzyme activity in the presence of enzyme, substrates and cofactors; min: the enzyme activity in the presence of substrates, cofactors and in the absence of enzyme). IC50 value was calculated from the inhibition curve using GraphPad Prism 5.0 software (La Jolla, CA).

FHC = experiment: MTT cytotoxicity assay, normal FHC cells; conditions: Homo sapiens, 48 h, read-out: IC50 FHC
Method: (§1) MTT assay was used to determine the cytotoxic activity of target compounds against different cell lines. […] Then, the cells were treated with five doses of test compounds (pre-dissolved in DMSO), and 0.1% DMSO was used as a negative control. […] The results expressed as IC50 were the average of three determinations calculated by using the Bacus Laboratories Incorporated Slide Scanner (Bliss) software.

MDA-MB-231 = experiment: MTT antiproliferative assay, MDA-MB-231; conditions: Homo sapiens, MDA-MB-231, 48 h, read-out: IC50 MDA-MB-231
Method: as §1

HT-29 = experiment: MTT antiproliferative assay, HT-29; conditions: Homo sapiens, HT-29, 48 h, read-out: IC50 HT-29
Method: as §1

HUVEC = experiment: MTT cytotoxicity assay, normal HUVEC cells; conditions: Homo sapiens, 48 h, read-out: IC50 HUVEC
Method: as §1

MKN-45 = experiment: MTT antiproliferative assay, MKN-45; conditions: Homo sapiens, MKN-45, 48 h, read-out: IC50 MKN-45
Method: as §1

A549 = experiment: MTT antiproliferative assay, A549; conditions: Homo sapiens, A549, 48 h, read-out: IC50 A549
Method: as §1

SMILES | IC50 (c-Met) [µM] | IC50 (FHC) [µM] | IC50 (MDA-MB-231) [µM] | IC50 (HT-29) [µM] | melting point [°C] | IC50 (HUVEC) [µM] | IC50 (MKN-45) [µM] | IC50 (A549) [µM] | fold loss of c-Met inhibitory activity compared to 51w (c-Met) [fold]
COc1cc2nccc(Oc3ccc(NC(=O)c4nc(-c5ccccc5)ns4)cc3)c2cc1OC [Compound 51a, N-(4-((6,7-Dimethoxyquinolin-4-yl)oxy)phenyl)-3-phenyl-1,2,4-thiadiazole-5-carboxamide] | 0.0566 ± 0.00482 | > 100 | > 50 | 24.4 ± 1.68 | 145 to 147 | > 100 | 9.25 ± 0.86 | 26.4 ± 1.24 | –
O=C(Nc1ccc(Oc2ccnc(Cl)c2)c(F)c1)c1nc(-c2ccc(F)cc2)cs1 [Compound 51aa, N-(4-((2-Chloropyridin-4-yl)oxy)-3-fluorophenyl)-4-(4-fluorophenyl)thiazole-2-carboxamide] | 0.0156 ± 0.00243 | 24.6 ± 4.23 | 11.7 ± 1.39 | 4.36 ± 0.38 | 150 to 152 | 15.3 ± 2.16 | 0.95 ± 0.18 | 4.83 ± 0.72 | –
O=C(Nc1ccc(Oc2ccnc(Cl)c2)c(F)c1)c1nc(-c2cccc(F)c2)cs1 [Compound 51ab, N-(4-((2-Chloropyridin-4-yl)oxy)-3-fluorophenyl)-4-(3-fluorophenyl)thiazole-2-carboxamide] | 0.0232 ± 0.00216 | 20.2 ± 3.62 | 10.1 ± 1.88 | 6.95 ± 0.82 | 189 to 191 | 12.7 ± 0.83 | 1.49 ± 0.63 | 6.02 ± 0.87 | –
O=C(Nc1ccc(Oc2ccnc(Cl)c2)c(F)c1)c1nc(-c2ccccc2F)cs1 [Compound 51ac, N-(4-((2-Chloropyridin-4-yl)oxy)-3-fluorophenyl)-4-(2-fluorophenyl)thiazole-2-carboxamide] | 0.0185 ± 0.00305 | 31.3 ± 2.63 | 18.1 ± 2.14 | 9.53 ± 0.75 | 168 to 170 | 19.4 ± 0.83 | 1.94 ± 0.26 | 7.54 ± 0.62 | –
O=C(Nc1ccc(Oc2ccnc(Cl)c2)c(F)c1)c1nc(-c2ccc(Cl)cc2)cs1 [Compound 51ad, 4-(4-Chlorophenyl)-N-(4-((2-chloropyridin-4-yl)oxy)-3-fluorophenyl)thiazole-2-carboxamide] | 0.0178 ± 0.00182 | 26.5 ± 1.28 | 15.2 ± 1.46 | 8.04 ± 0.93 | 167 to 169 | 18.5 ± 2.04 | 1.74 ± 0.23 | 6.75 ± 0.55 | –
O=C(Nc1ccc(Oc2ccnc(Cl)c2)c(F)c1)c1nc(-c2cccc(Cl)c2)cs1 [Compound 51ae, 4-(3-Chlorophenyl)-N-(4-((2-chloropyridin-4-yl)oxy)-3-fluorophenyl)thiazole-2-carboxamide] | 0.0234 ± 0.00361 | 24.5 ± 1.84 | 19.2 ± 2.35 | 9.62 ± 1.56 | 171 to 173 | 13.1 ± 0.95 | 1.95 ± 0.68 | 7.08 ± 0.95 | –
O=C(Nc1ccc(Oc2ccnc(Cl)c2)c(F)c1)c1nc(-c2ccc(Br)cc2)cs1 [Compound 51af, 4-(4-Bromophenyl)-N-(4-((2-chloropyridin-4-yl)oxy)-3-fluorophenyl)thiazole-2-carboxamide] | 0.0192 ± 0.00144 | 21.6 ± 2.82 | 20.5 ± 3.65 | 11.7 ± 1.63 | 192 to 194 | 11.5 ± 0.83 | 2.06 ± 0.45 | 8.23 ± 1.42 | –
O=C(Nc1ccc(Oc2ccnc(Cl)c2)c(F)c1)c1nc(-c2ccc(C(F)(F)F)cc2)cs1 [Compound 51ag, N-(4-((2-Chloropyridin-4-yl)oxy)-3-fluorophenyl)-4-(4(trifluoromethyl)phenyl)thiazole-2-carboxamide] | 0.0394 ± 0.00525 | – | 30.6 ± 2.64 | 20.4 ± 3.02 | 212 to 214 | 43.2 ± 3.53 | 5.84 ± 1.21 | 12.4 ± 2.85 | –
O=C(Nc1ccc(Oc2ccnc(Cl)c2)c(F)c1)c1nc(-c2ccc(Cl)c(Cl)c2)cs1 [Compound 51ah, N-(4-((2-Chloropyridin-4-yl)oxy)-3-fluorophenyl)-4-(3,4-dichlorophenyl)thiazole-2-carboxamide] | 0.00926 ± 0.00134 | 20.4 ± 1.86 | 7.29 ± 1.22 | 2.78 ± 0.49 | 195 to 197 | 12.4 ± 0.85 | 0.53 ± 0.42 | 3.17 ± 0.51 | –
O=C(Nc1ccc(Oc2ccnc(Cl)c2)c(F)c1)c1nc(-c2ccc3ccccc3c2)cs1 [Compound 51ai, N-(4-((2-Chloropyridin-4-yl)oxy)-3-fluorophenyl)-4-(naphthalen-2-yl)thiazole-2-carboxamide] | 0.0614 ± 0.00458 | > 100 | 30.3 ± 2.16 | 21.5 ± 1.58 | 182 to 184 | > 100 | 6.12 ± 1.38 | 15.3 ± 2.81 | 2.6
O=C(Nc1ccc(Oc2ccnc(Cl)c2)c(F)c1)c1nc(-c2cccs2)cs1 [Compound 51aj, N-(4-((2-chloropyridin-4-yl)oxy)-3-fluorophenyl)-4-(thiophen-2-yl)thiazole-2-carboxamide] | 0.0495 ± 0.00536 | > 100 | 25.9 ± 3.41 | 17.5 ± 2.44 | 184 to 186 | 52.3 ± 3.74 | 4.55 ± 0.91 | 11.5 ± 2.17 | 2.1
O=C(Nc1ccc(Oc2ccnc(Cl)c2)c(F)c1)c1nc(-c2ccc(F)c(Cl)c2)cs1 [Compound 51ak, 4-(3-Chloro-4-fluorophenyl)-N-(4-((2-chloropyridin-4-yl)oxy)-3-fluorophenyl)thiazole-2-carboxamide] | 0.00389 ± 0.00052 | 13.2 ± 0.84 | 4.24 ± 0.68 | 1.56 ± 0.32 | 168 to 170 | 8.52 ± 1.35 | 0.22 ± 0.04 | 1.81 ± 0.34 | –
O=C(Nc1ccc(Oc2ccnc(Cl)c2)c(F)c1)c1nc(-c2ccc(F)c(F)c2)cs1 [Compound 51al, N-(4-((2-Chloropyridin-4-yl)oxy)-3-fluorophenyl)-4-(3,4-difluorophenyl)thiazole-2-carboxamide] | 0.00523 ± 0.00074 | 10.2 ± 1.65 | 5.82 ± 0.73 | 1.94 ± 0.65 | 170 to 172 | 6.14 ± 0.75 | 0.35 ± 0.07 | 2.26 ± 0.68 | –
O=C(Nc1ccc(Oc2ccnc(Cl)c2Cl)c(F)c1)c1nc(-c2ccc(F)c(F)c2)cs1 [Compound 51an, N-(4-((2,3-Dichloropyridin-4-yl)oxy)-3-fluorophenyl)-4-(3,4-difluorophenyl)thiazole-2-carboxamide] | 0.00373 ± 0.00062 | 9.54 ± 1.26 | 4.65 ± 0.93 | 0.94 ± 0.27 | 156 to 158 | 4.83 ± 0.69 | 0.15 ± 0.07 | 1.32 ± 0.35 | –
COc1cc2nccc(Oc3ccc(NC(=O)c4nc(-c5ccc(F)cc5)ns4)cc3)c2cc1OC [Compound 51b, N-(4-((6,7-Dimethoxyquinolin-4-yl)oxy)phenyl)-3-(4-fluorophenyl)-1,2,4-thiadiazole-5-carboxamide] | 0.0501 ± 0.00514 | > 100 | 38.6 ± 4.07 | 26.5 ± 1.42 | 113 to 115 | > 100 | 7.89 ± 1.35 | 22.5 ± 3.15 | –
COc1cc2nccc(Oc3ccc(NC(=O)c4nc(-c5ccc(F)cc5)cs4)cc3)c2cc1OC [Compound 51f, N-(4-((6,7-Dimethoxyquinolin-4-yl)oxy)phenyl)-4-(4-fluorophenyl)thiazole-2-carboxamide] | 0.0291 ± 0.00353 | – | 31.8 ± 2.56 | 22.4 ± 1.94 | 84 to 86 | 45.5 ± 3.83 | 4.95 ± 0.82 | 14.7 ± 3.27 | –
COc1cc2nccc(Oc3ccc(NC(=O)c4nc(-c5ccccc5)cs4)cc3C)c2cc1OC [Compound 51n, N-(4-((6,7-Dimethoxyquinolin-4-yl)oxy)-3-methylphenyl)-4-phenylthiazole-2-carboxamide] | 0.0456 ± 0.00603 | > 100 | – | 24.4 ± 2.14 | 136 to 138 | > 100 | 7.21 ± 0.95 | 17.5 ± 2.25 | –
COc1ccc(-c2csc(C(=O)Nc3ccc(Oc4ccnc(Cl)c4)c(F)c3)n2)cc1 [Compound 51y, N-(4-((2-Chloropyridin-4-yl)oxy)-3-fluorophenyl)-4-(4-methoxyphenyl)thiazole-2-carboxamide] | 0.0367 ± 0.00297 | – | 28.5 ± 2.35 | 14 ± 2.26 | 191 to 193 | 32.4 ± 1.98 | 3.22 ± 0.86 | 9.28 ± 1.85 | –
